By IC50 is commonly meant the concentration needed to halve the response being measured.

Where only a bound is given, the exact number is not on record here.

IC50 data for 32 molecules are collected here from patent publication US20060223996A1, “IL-12 modulatory compounds” (Synta Pharmaceuticals Corp., priority 2004, published 2006).

In this experiment the test system is IL-12. In words: Human in vitro assay: inhibition of IL-12 production in IFNγ/LPS- or IFNγ/SAC-stimulated human PBMC or THP-1 cells (ELISA). In kind it is cell-based. The conditions noted are these: read-out: IC50 Range (representative in vitro IC50 data). The gist of the method: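 Sandwich ELISA for IL-12 (p70, p40) on supernatants collected 18 h after stimulation gave IC50 values; MTS monitored viability. THP-1 cells: IFNγ 100 U/mL priming 22 h, SAC 0.025%. PBMC: IFNγ 30 U/mL for 22 h plus LPS 1 μg/mL, or IFNγ 100 U/mL plus SAC 0.01%. Final DMSO 0.25%.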
(In general: In an ELISA, binding on a coated surface is turned into a signal by an enzyme label.)
Turning to `Cc1ccc(NC(=O)c2cc(OCCN3CCOCC3)nc(N3CCOCC3)n2)cc1N(C)C` [Compound 290, 2-Morpholin-4-yl-6-(2-morpholin-4-yl-ethoxy)-pyrimidine-4-carboxylic acid (3-dimethylamino-4-methyl-phenyl)-amide], the IC50 is under 1000 nM.
As to `CCN(CC)c1cccc(NC(=O)c2cc(OCCN3CCOCC3)nc(N3CCOCC3)n2)c1` [Compound 300, 2-Morpholin-4-yl-6-(2-morpholin-4-yl-ethoxy)-pyrimidine-4-carboxylic acid (3-diethylamino-phenyl)-amide], the IC50 is at least 1000 nM.
Then `Cc1[nH]c2ccc(NC(=O)c3cc(NCC(=O)N(C)CCO)nc(N4CCOCC4)n3)cc2c1C` [Compound 101, 6-({[(2-Hydroxy-ethyl)-methyl-carbamoyl]-methyl}-amino)-2-morpholin-4-yl-pyrimidine-4-carboxylic acid (2,3-dimethyl-1H-indol-5-yl)-amide], with under 1000 nM.
Then `NC(=O)c1cccc(NC(=O)c2cc(OCCN3CCOCC3)nc(N3CCOCC3)n2)c1` [Compound 25, 2-Morpholin-4-yl-6-(2-morpholin-4-yl-ethoxy)-pyrimidine-4-carboxylic acid (3-carbamoyl-phenyl)-amide], with under 1000 nM; and `Cc1[nH]c2ccc(NC(=O)c3cc(N4CCC(O)CC4)nc(N4CCOCC4)n3)cc2c1C` [Compound 173, 6-(4-Hydroxy-piperidin-1-yl)-2-morpholin-4-yl-pyrimidine-4-carboxylic acid (2,3-dimethyl-1H-indol-5-yl)-amide], with under 1000 nM; and `Cc1[nH]c2ccc(NC(=O)c3cc(NCCN(C)C)nc(N4CCOCC4)n3)cc2c1C` [Compound 95, 6-(2-Dimethylamino-ethylamino)-2-morpholin-4-yl-pyrimidine-4-carboxylic acid (2,3-dimethyl-1H-indol-5-yl)-amide], with under 1000 nM.
Then `CN(C)c1cccc(NC(=O)c2cc(N(C)CC(=O)N3CCCCC3)nc(N3CCOCC3)n2)c1` [Compound 116, 6-[Methyl-(2-oxo-2-piperidin-1-yl-ethyl)-amino]-2-morpholin-4-yl-pyrimidine-4-carboxylic acid (3-dimethylamino-phenyl)-amide], with under 1000 nM; and `COCCN(C)c1cc(C(=O)Nc2ccc(Br)c(C)c2)nc(N2CCOCC2)n1` [Compound 230, 6-[(2-Methoxy-ethyl)-methyl-amino]-2-morpholin-4-yl-pyrimidine-4-carboxylic acid (4-bromo-3-methyl-phenyl)-amide], with at least 1000 nM; and `Cc1[nH]c2ccc(NC(=O)c3cc(OCCN4CCOCC4)nc(N4CCOCC4)c3)cc2c1C` [Compound 66, N-(2,3-Dimethyl-1H-indol-5-yl)-2-morpholin-4-yl-6-(2-morpholin-4-yl-ethoxy)-isonicotinamide], with at least 1000 nM.
Turning to `COCCN(C)c1cc(C(=O)Nc2cccc(-c3nn(C)cc3Br)c2)nc(N2CCOCC2)n1` [Compound 235, 6-[(2-Methoxy-ethyl)-methyl-amino]-2-morpholin-4-yl-pyrimidine-4-carboxylic acid [3-(4-bromo-1-methyl-1H-pyrazol-3-yl)-phenyl]-amide], the IC50 was at least 1000 nM.
As for `COCCN(C)c1cc(C(=O)Nc2ccc3c(c2)OCO3)nc(N2CCOCC2)n1` [Compound 210, N-(benzo[d][1,3]dioxol-5-yl)-6-((2-methoxyethyl)(methyl)amino)-2-morpholinopyrimidine-4-carboxamide], the IC50 is at least 1000 nM.
As to `Cc1[nH]c2c(NC(=O)c3cc(OCCN4CCOCC4)nc(N4CCOCC4)n3)cccc2c1C` [Compound 41, 2-Morpholin-4-yl-6-(2-morpholin-4-yl-ethoxy)-pyrimidine-4-carboxylic acid (2,3-dimethyl-1H-indol-7-yl)-amide], the half-inhibitory concentration (IC50) was at least 1000 nM.
Then `Cc1cccc(NC(=O)c2cc(OCCc3ccccn3)nc(N3CCOCC3)n2)n1` [Compound 34, 2-Morpholin-4-yl-6-(2-pyridin-2-yl-ethoxy)-pyrimidine-4-carboxylic acid (6-methyl-pyridin-2-yl)-amide], with at least 1000 nM; and `Cc1[nH]c2ccc(NC(=O)c3cc(NCCO)nc(N4CCOCC4)n3)cc2c1C` [Compound 194, N-(2,3-dimethyl-1H-indol-5-yl)-6-(2-hydroxyethylamino)-2-morpholinopyrimidine-4-carboxamide], with under 1000 nM; and `O=C(Nc1cccc(N2CCOCC2)c1)c1cc(OCCN2CCOCC2)nc(N2CCOCC2)n1` [Compound 295, 2-Morpholin-4-yl-6-(2-morpholin-4-yl-ethoxy)-pyrimidine-4-carboxylic acid (3-morpholin-4-yl-phenyl)-amide], with under 1000 nM.
On to `CN(C)c1cccc(NC(=O)c2cc(N(C)CCO)nc(N3CCOCC3)n2)c1` [Compound 303, 6-[(2-Hydroxy-ethyl)-methyl-amino]-2-morpholin-4-yl-pyrimidine-4-carboxylic acid (3-dimethylamino-phenyl)-amide], for which the IC50 was under 1000 nM.
For `COCCN(C)c1cc(C(=O)Nc2ccc(NC(C)=O)cc2)nc(N2CCOCC2)n1` [Compound 165, 6-[(2-Methoxy-ethyl)-methyl-amino]-2-morpholin-4-yl-pyrimidine-4-carboxylic acid (4-acetylamino-phenyl)-amide], the IC50 is at least 1000 nM.
As to `CC(C)c1cccc(NC(=O)c2cc(OCCN3CCOCC3)nc(N3CCOCC3)n2)c1` [Compound 213, N-(3-isopropylphenyl)-2-morpholino-6-(2-morpholinoethoxy)pyrimidine-4-carboxamide], the half-inhibitory concentration (IC50) is at least 1000 nM.
Consider `Cc1cccc(NC(=O)Nc2cc(OCC(C)(C)O)nc(N3CCOCC3)n2)c1` [Compound 11, 1-[6-(2-Hydroxy-2-methyl-propoxy)-2-morpholin-4-yl-pyrimidin-4-yl]-3-m-tolyl-urea], for which the IC50 is at least 1000 nM.
With `O=C(Nc1ccnc(N2CCCC2)c1)c1cc(OCCN2CCOCC2)nc(N2CCOCC2)n1` [Compound 151, 2-Morpholin-4-yl-6-(2-morpholin-4-yl-ethoxy)-pyrimidine-4-carboxylic acid (2-pyrrolidin-1-yl-pyridin-4-yl)-amide], the IC50 was under 1000 nM.
`COCCN(C)c1cc(C(=O)Nc2cccc(C(=O)c3ccccc3)c2)nc(N2CCOCC2)n1` [Compound 232, 6-[(2-Methoxy-ethyl)-methyl-amino]-2-morpholin-4-yl-pyrimidine-4-carboxylic acid (3-benzoyl-phenyl)-amide]: the IC50 is at least 1000 nM.
For the molecule `CC1CCc2ccc(NC(=O)c3cc(OCCN4CCOCC4)nc(N4CCOCC4)n3)cc2N1C` (centres unmarked) [Compound 321, 2-Morpholin-4-yl-6-(2-morpholin-4-yl-ethoxy)-pyrimidine-4-carboxylic acid (1,2-dimethyl-1,2,3,4-tetrahydro-quinolin-7-yl)-amide], the IC50 was at least 1000 nM.
Regarding `O=C(Nc1cc(OCCc2ccccn2)nc(N2CCOCC2)n1)c1ccc2[nH]ccc2c1` [Compound 73, 1H-Indole-5-carboxylic acid [2-morpholin-4-yl-6-(2-pyridin-2-yl-ethoxy)-pyrimidin-4-yl]-amide], the IC50 was at least 1000 nM.
For `CCN(CC)C(=O)Nc1cccc(NC(=O)c2cc(OCCN3CCOCC3)nc(N3CCOCC3)n2)c1` [Compound 198, N-(3-(3,3-diethylureido)phenyl)-2-morpholino-6-(2-morpholinoethoxy)pyrimidine-4-carboxamide], the IC50 is at least 1000 nM.
As for `Cc1[nH]c2ccc(NC(=O)c3cc(OCCN4CCCCC4)nc(N4CCOCC4)n3)cc2c1C` [Compound 42, 2-Morpholin-4-yl-6-(2-piperidin-1-yl-ethoxy)-pyrimidine-4-carboxylic acid (2,3-dimethyl-1H-indol-5-yl)-amide], the IC50 was at least 1000 nM.
`COCCN(C)c1cc(C(=O)Nc2cccc(-c3cnc4ccccc4n3)c2)nc(N2CCOCC2)n1` [Compound 242, 6-[(2-Methoxy-ethyl)-methyl-amino]-2-morpholin-4-yl-pyrimidine-4-carboxylic acid (3-quinoxalin-2-yl-phenyl)-amide]: the IC50 was at least 1000 nM.
Regarding `CCc1c(C)[nH]c2ccc(NC(=O)c3cc(N4CCC(C(N)=O)CC4)nc(N4CCOCC4)n3)cc12` [Compound 183, 6-(4-Carbamoyl-piperidin-1-yl)-2-morpholin-4-yl-pyrimidine-4-carboxylic acid (3-ethyl-2-methyl-1H-indol-5-yl)-amide], the IC50 was under 1000 nM.
Consider `COCCN(C)c1cc(C(=O)Nc2cccc(S(C)(=O)=O)c2)nc(N2CCOCC2)n1` [Compound 231, 6-[(2-Methoxy-ethyl)-methyl-amino]-2-morpholin-4-yl-pyrimidine-4-carboxylic acid (3-methanesulfonyl-phenyl)-amide], for which the IC50 was at least 1000 nM.
Regarding `Cc1cccc(C(=O)Nc2nc(OCCc3ccccn3)cc(N3CCOCC3)n2)c1` [Compound 75, 3-Methyl-N-[4-morpholin-4-yl-6-(2-pyridin-2-yl-ethoxy)-pyrimidin-2-yl]-benzamide], the IC50 is at least 1000 nM.
On to `Cc1[nH]c2ccc(NC(=O)c3cc(N4CCOCC4)nc(N4CCOCC4)n3)cc2c1C` [Compound 22, 2,6-Di-morpholin-4-yl-pyrimidine-4-carboxylic acid (2,3-dimethyl-1H-indol-5-yl)-amide], for which the IC50 was under 1000 nM.
As to `Cc1[nH]c2ccc(NC(=O)c3cc(N4CCC5(CC4)OCCO5)nc(N4CCOCC4)n3)cc2c1C` [Compound 172, 6-(1,4-Dioxa-8-aza-spiro[4.5]dec-8-yl)-2-morpholin-4-yl-pyrimidine-4-carboxylic acid (2,3-dimethyl-1H-indol-5-yl)-amide], the IC50 was under 1000 nM.
As for `O=C(Nc1cccc(Cl)c1)Nc1cc(OCCN2CCOCC2)nc(N2CCOCC2)n1` [Compound 126, 1-(3-Chloro-phenyl)-3-[2-morpholin-4-yl-6-(2-morpholin-4-yl-ethoxy)-pyrimidin-4-yl]-urea], the IC50 was under 1000 nM.
